Where “and” joins values, the source holds several entries; their conditions need not be identical. Identical values can stand only once.
Key:
galactose oxidase = settings: dilute (3.5%) saliva; FIG. 17
lysozyme = biological target: T1, lysozyme (Homo sapiens, UniProt P61626); experiment: Lysozyme inhibition saliva screening, dilute (3.5%) saliva; format: biochemical; settings: FIG. 16
T1 sequence (P61626 19-148): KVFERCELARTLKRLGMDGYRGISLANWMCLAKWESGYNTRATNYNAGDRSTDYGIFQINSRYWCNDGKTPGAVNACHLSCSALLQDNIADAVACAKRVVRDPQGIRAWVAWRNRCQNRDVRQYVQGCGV
Excerpt: Further details of these five compounds may also be seen in Table 5.

α-amylase [1] = biological target: T2, α-amylase (Homo sapiens, UniProt P0DUB6); experiment: α-Amylase inhibition saliva screening, dilute (3.5%) saliva; format: biochemical; settings: for absorbance at 405 nm, Ave / absorbance at 405 nm, single readings: test compound prepared at 5,000 ppm, 37° C.; for α-Amylase Inhibitor Activity: dilute (3.5%) saliva, FIG. 14
T2 sequence (P0DUB6 16-511): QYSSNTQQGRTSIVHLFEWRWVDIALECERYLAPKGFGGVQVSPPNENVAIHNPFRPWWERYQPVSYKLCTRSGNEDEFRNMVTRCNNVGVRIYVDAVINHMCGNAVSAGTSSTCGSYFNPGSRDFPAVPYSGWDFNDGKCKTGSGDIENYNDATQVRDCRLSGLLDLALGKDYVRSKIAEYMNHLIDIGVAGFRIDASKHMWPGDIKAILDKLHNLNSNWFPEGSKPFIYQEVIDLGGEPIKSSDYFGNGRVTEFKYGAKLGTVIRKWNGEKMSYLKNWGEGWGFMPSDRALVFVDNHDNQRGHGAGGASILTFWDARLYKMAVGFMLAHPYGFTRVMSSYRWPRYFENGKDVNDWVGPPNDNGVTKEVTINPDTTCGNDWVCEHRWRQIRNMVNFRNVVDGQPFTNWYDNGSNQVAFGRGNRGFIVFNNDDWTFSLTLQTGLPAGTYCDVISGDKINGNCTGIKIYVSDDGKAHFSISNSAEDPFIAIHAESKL
Excerpt: Further details of these five compounds may also be seen in Table 4.

α-amylase [2] = biological target: T2, α-amylase; settings: 100% saliva samples; FIG. 15
Excerpt: Enzymatic activity of α-amylase on the substrate yields 2-chloro-p-nitrophenol, which can be measured spectrophotometrically at 405 nm. The amount of α-amylase activity present in the experimental sample is directly proportional to the increase in absorbance at 405 nm.

peroxidase = experiment: Peroxidase assay in saliva (Amplex Red); format: biochemical; settings: 500 ppm; pooled or unpooled saliva; 30 minutes; FIGS. 30-33
Procedure: To determine the effect of various GRAS compounds as inhibitors of peroxidase activity, a standard assay using Amplex® Red (Life Technologies), which releases a fluorescent oxidation product.
The test compounds, such as GRAS materials or cocktails of same, were prepared at a concentration of 500 ppm in distilled water. For the assay, 50 μl samples of test compounds were mixed with 20-30 μl of saliva (either “pooled” or “unpooled”) prior to the addition of Amplex® Red. […] Reactions were allowed to run for 30 minutes during these assays.

`O=C(O)c1ccccc1` [CDI-40, Benzoic acid] was tested. Which “Galactose Oxidase Inhibitor Activity” value (galactose oxidase) did it give?
Its value is “shown to have Galactose Oxidase Inhibitor Activity”.

And the “Lysozyme Inhibitor Activity” value (lysozyme)?
Its value is “shown to have Lysozyme Inhibitor Activity”.

With “Aluminum potassium sulfate dodecahydrate [CDI-42]” as the compound, how does the “Galactose Oxidase Inhibitor Activity” value (galactose oxidase) read?
The value was “shown to have Galactose Oxidase Inhibitor Activity”.

And the “absorbance at 405 nm, Ave” value (α-amylase [1]; 0 min)?
Its value is 0.92.

And the “absorbance at 405 nm, single readings” value (α-amylase [1]; 0 min)?
Its value is 0.80 and 0.90 and 0.84.

What about the “absorbance at 405 nm, Ave” value (α-amylase [1]; 5 min) of the same compound?
Its value is 1.85.

And the “absorbance at 405 nm, single readings” value (α-amylase [1]; 5 min)?
Its value is 1.80.

And the “absorbance at 405 nm, Ave” value (α-amylase [1]; 15 min)?
The value was 2.29.

And the “α-Amylase Inhibitor Activity” value (α-amylase [1])?
Its value is “shown to have α-Amylase Inhibitor Activity”.

What about the “inhibition of α-Amylase” value (α-amylase [2]) of the same compound?
Its value is “shown to inhibit α-Amylase”.

And the peroxidase inhibition (peroxidase)?
The peroxidase inhibition was “showed significant peroxidase inhibition capabilities”.

Which “absorbance at 405 nm, Ave” value (α-amylase [1]; 0 min) does the source give for Aluminum sulfate hydrate [CDI-34] here?
Its value is 0.40.

What about the “absorbance at 405 nm, single readings” value (α-amylase [1]; 0 min, sulfate hydrate) of the same compound?
Its value is 0.40 and 0.36 and 0.45.

What about the “absorbance at 405 nm, Ave” value (α-amylase [1]; 5 min) of the same compound?
Its value is 0.50.

What about the “absorbance at 405 nm, single readings” value (α-amylase [1]; 5 min, sulfate hydrate) of the same compound?
Its value is 0.49 and 0.50 and 0.52.

What about the “absorbance at 405 nm, Ave” value (α-amylase [1]; 15 min) of the same compound?
Its value is 0.56.

What about the “absorbance at 405 nm, single readings” value (α-amylase [1]; 15 min, sulfate hydrate) of the same compound?
The value was 0.53 and 0.61 and 0.54 and 0.56.

And the “α-Amylase Inhibitor Activity” value (α-amylase [1])?
Its value is “shown to have α-Amylase Inhibitor Activity”.

What about the “inhibition of α-Amylase” value (α-amylase [2]) of the same compound?
The value was “shown to inhibit α-Amylase”.

For `CC(=O)O` [CDI-47, Acetic acid], which “Galactose Oxidase Inhibitor Activity” value (galactose oxidase) is on record?
The value was “shown to have Galactose Oxidase Inhibitor Activity”.

And the “Lysozyme Inhibitor Activity” value (lysozyme)?
Its value is “shown to have Lysozyme Inhibitor Activity”.

`Cn1c(=O)c2c(ncn2C)n(C)c1=O` [CDI-33, Caffeine] was tested. Which peroxidase inhibition (peroxidase) did it give?
The peroxidase inhibition was “showed significant peroxidase inhibition capabilities”.

How did the “Galactose Oxidase Inhibitor Activity” value (galactose oxidase) turn out when `COc1ccc(O)c(C(C)(C)C)c1` [CDI-39, 3-tert--butyl-hydroxyanisole] was run?
The value was “shown to have Galactose Oxidase Inhibitor Activity”.

What about the peroxidase inhibition (peroxidase) of the same compound?
The peroxidase inhibition was “showed significant peroxidase inhibition capabilities”.
